Reference: DBAASP
≈ marks a conversion by molar mass, not a printed value.

Key:
Assay in all cases: ≥ marks a high value that may be exact or a test limit, other limits are often not marked, values filed in µg/mL are converted to µM
[1] = tested on: Pseudomonas aeruginosa
[2] = tested on: Staphylococcus aureus
[3] = tested on: Pseudomonas aeruginosa 1
[4] = tested on: Enterococcus faecalis
[5] = tested on: Acinetobacter baumannii
[6] = tested on: Staphylococcus epidermidis ATCC 35984
[7] = tested on: Staphylococcus aureus ATCC 25923
[8] = tested on: Staphylococcus aureus ATCC 33591
[9] = tested on: Pseudomonas aeruginosa ATCC 27853
[10] = tested on: Franconibacter helveticus DSM 18396
[11] = tested on: Bacillus subtilis DSM 347
[12] = tested on: Kocuria rhizophila DSM 348
[13] = tested on: Escherichia coli DH5alpha
[14] = tested on: Staphylococcus epidermidis DSM 1798
[15] = tested on: Escherichia coli DSM 1103
[16] = tested on: Pseudomonas aeruginosa DSM 1117
[17] = tested on: Staphylococcus aureus DSM 1104
[18] = tested on: Escherichia coli KCTC 1682
[19] = tested on: Salmonella typhimurium KCTC 1926
[20] = tested on: Pseudomonas aeruginosa KCTC 1637
[21] = tested on: Staphylococcus epidermidis KCTC 1917
[22] = tested on: Bacillus subtilis KCTC 3068
[23] = tested on: Staphylococcus aureus KCTC 1621

CC(C)C[C@H](NC(=O)[C@H](CC(C)C)NC(=O)[C@H](CCCCN)NC(=O)[C@H](CCCCN)NC(=O)[C@H](CC(C)C)NC(=O)[C@H](CCCCN)NC(=O)[C@H](CCCCN)NC(=O)[C@H](CC(C)C)NC(=O)[C@H](CC(C)C)NC(=O)[C@H](CCCCN)NC(=O)[C@H](CCCN=C(N)N)NC(=O)[C@H](Cc1c[nH]c2ccccc12)NC(=O)[C@H](CCCCN)NC(=O)[C@@H](N)CCCCN)C(N)=O [KKWRKLLKKLKKLL]
MIC [1]: 0.548 µM (≈ 0.999 µg/mL) | MIC [2]: 1.1 µM (≈ 2 µg/mL) | MIC [3]: 1.55 µM (≈ 2.83 µg/mL) | MIC [4]: 0.658 µM (≈ 1.2 µg/mL) | MIC [5]: 0.548 µM (≈ 0.999 µg/mL)

CC[C@H](C)[C@H](N)C(=O)NCC(=O)N[C@@H](CCCCN)C(=O)N[C@@H](Cc1ccccc1)C(=O)N[C@@H](CC(C)C)C(=O)N[C@@H](CCCCN)C(=O)N[C@@H](CCCCN)C(=O)N[C@@H](C)C(=O)N[C@@H](CCCCN)C(=O)N[C@@H](CCCCN)C(=O)N[C@@H](Cc1ccccc1)C(=O)NCC(N)=O [IGKFLKKAKKFG]
MIC [6]: ≥ 188 µM | MIC [7]: > 375 µM | MIC [8]: ≥ 375 µM | MIC [9]: 133 µM (≈ 181 µg/mL)

CC[C@H](C)[C@H](NC(=O)CN)C(=O)NCC(=O)N[C@@H](CCCCN)C(=O)N[C@@H](Cc1ccccc1)C(=O)N[C@@H](CC(C)C)C(=O)N[C@@H](Cc1cnc[nH]1)C(=O)N[C@@H](CO)C(=O)N[C@@H](C)C(=O)N[C@@H](CCCCN)C(=O)N[C@@H](CCCCN)C(=O)N[C@@H](Cc1ccccc1)C(=O)NCC(=O)N[C@@H](CCCCN)C(=O)N[C@@H](C)C(=O)N[C@@H](Cc1ccccc1)C(=O)N[C@H](C(=O)NCC(=O)N[C@@H](CCC(=O)O)C(=O)N[C@@H](C)C(=O)N[C@@H](CCSC)C(=O)N[C@@H](CC(N)=O)C(=O)N[C@@H](CO)C(=O)O)C(C)C [GIGKFLHSAKKFGKAFVGEAMNS]
MIC [10]: ≥ 64 µM | MIC [11]: 16 µM (≈ 38.8 µg/mL) | MIC [12]: ≥ 256 µM | MIC [13]: ≥ 128 µM

CC(C)C[C@H](NC(=O)[C@H](C)NC(=O)[C@H](CCCN=C(N)N)NC(=O)[C@H](CC(C)C)NC(=O)[C@H](C)NC(=O)[C@H](CC(C)C)NC(=O)[C@H](CCCN=C(N)N)NC(=O)[C@H](CC(C)C)NC(=O)[C@H](C)NC(=O)[C@H](CC(C)C)NC(=O)[C@@H](N)CCCN=C(N)N)C(=O)N[C@@H](CCCN=C(N)N)C(=O)N[C@@H](C)C(=O)N[C@@H](C)C(=O)N[C@@H](CC(C)C)C(=O)N[C@@H](CCCN=C(N)N)C(=O)N[C@@H](CC(C)C)C(=O)N[C@@H](C)C(N)=O [RLALRLALRALRAALRLA]
MIC [14]: 4 µM (≈ 8.07 µg/mL) | MIC [15]: ≥ 57 µM | MIC [16]: ≥ 115 µM | MIC [17]: 29 µM (≈ 58.5 µg/mL)

NCCCC[C@H](NC(=O)[C@H](CCCN=C(N)N)NC(=O)CN)C(=O)N[C@@H](CCCCN)C(=O)N[C@@H](CCCN=C(N)N)C(=O)N[C@@H](CCCN=C(N)N)C(=O)N[C@@H](CCC(N)=O)C(=O)N[C@@H](CCCN=C(N)N)C(=O)N[C@@H](CCCN=C(N)N)C(=O)N[C@@H](CCCN=C(N)N)C(=O)N1CCC[C@H]1C(=O)N1CCC[C@H]1C(=O)N[C@@H](CCC(N)=O)C(=O)O [GRKKRRQRRRPPQ]
MIC [14]: ≥ 128 µM | MIC [18]: 2 µM (≈ 3.44 µg/mL) | MIC [19]: 8 µM (≈ 13.8 µg/mL) | MIC [20]: 4 µM (≈ 6.88 µg/mL) | MIC [21]: 4 µM (≈ 6.88 µg/mL) | MIC [15]: ≥ 128 µM | MIC [22]: 4 µM (≈ 6.88 µg/mL) | MIC [16]: ≥ 128 µM | MIC [17]: ≥ 128 µM | MIC [23]: 4 µM (≈ 6.88 µg/mL)
